Experimental data from US20120082736A1, “Small-molecule TNF modulator to reduce the side effects of chemotherapy and radiotherapy” (GeneBlue Corporation, priority 2010, published 2012).
Entries after “also recorded” stand apart in the source; their conditions may differ.

Test system: BDF1 female mice treated with cisplatin
Test: Effect of pretreatment on BUN/creatinine, AST/ALT, WBC/platelet in blood of cisplatin-treated mice (Example 2)
Format: in vivo
Conditions: daily ×5, blood day 6
Protocol: Gp 1: medium (saline). Gp 2: saline followed by cisplatin (2.5 mg/kg) 30 min later. Gp 3: UTL-5g (15 mg/kg) followed by cisplatin (2.5 mg/kg) 30 min later. Gp 4: UTL-5g (30 mg/kg) followed by cisplatin (2.5 mg/kg) 30 min later. Gp 5: UTL-5g (60 mg/kg) followed by cisplatin (2.5 mg/kg) 30 min later. Gp 6: amifostine (200 mg/kg) followed by cisplatin (2.5 mg/kg) 30 min later; Gp 7: saline followed by cisplatin (5 mg/kg) 30 min later. Gp 1-Gp 6 were daily ×5, but Gp 7 was by single dose on day 0 only. StDev is shown for each Gp (n=5 for each group except for Gp 7, n=3). ** two-tailed p<0.005 vs medium control by Student's t-test.
(§1) Gp 1: medium (saline). Gp 2: saline followed by cisplatin (2.5 mg/kg) 30 min later. Gp 3: UTL-5g (15 mg/kg) followed by cisplatin 30 min later. Gp 4: UTL-5g (30 mg/kg) followed by cisplatin (2.5 mg/kg) 30 min later. Gp 5: UTL-5g (60 mg/kg) followed by cisplatin (2.5 mg/kg) 30 min later. Gp 6: amifostine (200 mg/kg) followed by cisplatin (2.5 mg/kg) 30 min later. Gp 7: saline followed by cisplatin (5 mg/kg) 30 min later. Gp 1-Gp 6 were daily ×5, but Gp 7 was by single dose on day 0 only. StDev is shown for each Gp (n=5 for each group except n=4 for Gp 7). * P<0.05, ** p<0.005 vs. medium control (Gp 1) by Student's t-test (two-tailed).
as §1, with “p<0.005, *** p<0.0005” for “p<0.005”, “control” for “control (Gp 1)”
BDF1 female mice (average wt ˜20 g/mouse) were randomly divided into the following groups (5 mice per group) and each treated daily ×5 (starting from day 0) by ip injection (0.25 mL/mouse), except in Gp 7, each was treated by a single dose ip injection (0.25 mL/mouse) on day 0 only, as described below • Gp 1: medium (saline) followed by medium (saline) 30 min later • Gp 2: medium (saline) followed by cisplatin (2.5 mg/kg) 30 min later • Gp 3: UTL-5g (15 mg/kg) followed by cisplatin (2.5 mg/kg) 30 min later • Gp 4: UTL-5g (30 mg/kg) followed by cisplatin (2.5 mg/kg) 30 min later • Gp 5: UTL-5g (60 mg/kg) followed by cisplatin (2.5 mg/kg) 30 min later • Gp 6: amifostine (200 mg/kg) followed by cisplatin (2.5 mg/kg) 30 min later • Gp 7: medium (saline) followed by cisplatin (5 mg/kg) 30 min later (single dose on Day 0 only)
Preparation of the test samples are described below: • Cisplatin: Cisplatin was dissolved in saline (0.2 and 0.4 mg/mL in saline) for 2.5 and 5 mg/kg ip injection. • UTL-5g: The stock solution of UTL-5g was first dissolved in DMSO and equal volume of Cremophor/propylene glycol (60/40 v/v) was added to make a stock solution. Immediately before the injection, saline was added to this temporary solution at a 90:10 v/v ratio and mixed thoroughly. Three concentrations for ip injection were prepared (1.25, 2.5, and 5 mg/mL) so that the doses are equivalent to 15, 30, and 60 mg/kg with a 0.25 mL injection. • Amifostine: The stock solution of amifostine was dissolved in saline to the desired concentration (16 mg/mL) for the 200 mg/kg injection.
Cardiac puncture was used to obtain blood from each mouse on day 6. To assess liver/kidney protection by UTL-5g, all blood samples were analyzed for BUN, creatinine, AST, and ALT by the chemistry lab at Henry Ford Health System. Unopette® (Becton Dickinson, Franklin Lakes, N.J.) diluting systems and a hemocytometer were used to assess the effect of UTL-5g on WBC and platelet counts in blood.

[1] = UTL-5g 15, 30, 60 mg/kg ip 30 min before cisplatin 2.5 mg/kg
[2] = ip 30 min before cisplatin 2.5 mg/kg, UTL-5g 15, 30, 60 mg/kg, amifostine 200 mg/kg

Cc1cc(C(=O)Nc2ccc(Cl)cc2Cl)no1 [UTL-5g]
platelet count relative to control (UTL-5g 60 mg/kg ip 30 min before cisplatin 2.5 mg/kg): > 3 times of the control
ALT levels, effect of pretreatment [1]: also reduced by UTL-5g; also recorded: lowered the elevated levels
AST levels, effect of pretreatment [1]: reduced by UTL-5g; also recorded: lowered the elevated levels
WBC count, effect of pretreatment (UTL-5g ip 30 min before cisplatin 2.5 mg/kg): did not significantly increase the WBC count
BUN levels, effect of pretreatment [2]: suppressed by UTL-5g in a dose-dependent manner; also recorded: lowered the elevated levels
creatinine, effect of pretreatment [2]: Essentially the same results; also recorded: lowered the elevated levels
platelet count, effect of pretreatment (ip 30 min before cisplatin 2.5 mg/kg, UTL-5g 15, 30, 60 mg/kg, amifostine 200 mg/kg, vs Gp 1 (Control)): increased platelet count in a dose-dependent manner
